Patent publication US20250230193A1, “CYCLIC COMPOUND HAVING SELECTIVE KRAS INHIBITORY EFFECT ON HRAS AND NRAS” (CHUGAI SEIYAKU KABUSHIKI KAISHA, priority 2022, published 2025)

How the values were obtained:
[1] = target: GDP-bound NRAS wild-type protein (Homo sapiens, UniProt P01111); assay: Binding to NRAS by surface plasmon resonance (SPR), Single Cycle Kinetics; settings: GDP-bound NRAS wild-type vs GDP-bound KRAS wild-type, SPR
[2] = target: GDP-bound HRAS wild-type protein (Homo sapiens, UniProt P01112); assay: Binding to HRAS by surface plasmon resonance (SPR), Single Cycle Kinetics; settings: GDP-bound HRAS wild-type vs GDP-bound KRAS wild-type, SPR
Chain of GDP-bound HRAS wild-type protein (P01112 whole entry): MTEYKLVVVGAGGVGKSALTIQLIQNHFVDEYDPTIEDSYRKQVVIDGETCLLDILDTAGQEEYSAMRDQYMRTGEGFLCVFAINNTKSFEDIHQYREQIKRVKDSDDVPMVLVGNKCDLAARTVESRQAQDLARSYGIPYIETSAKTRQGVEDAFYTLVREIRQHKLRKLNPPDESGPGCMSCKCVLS

Chain of GDP-bound NRAS wild-type protein (P01111 whole entry): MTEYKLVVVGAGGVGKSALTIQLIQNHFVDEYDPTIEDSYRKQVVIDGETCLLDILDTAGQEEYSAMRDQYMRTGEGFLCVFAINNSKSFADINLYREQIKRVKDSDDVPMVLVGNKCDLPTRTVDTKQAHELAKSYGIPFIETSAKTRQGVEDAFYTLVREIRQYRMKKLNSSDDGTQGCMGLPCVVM

Compound | NRAS/KRAS (ratio of KD value for NRAS to KD value for KRAS) [1] | HRAS/KRAS (ratio of KD value for HRAS to KD value for KRAS) [2] | NRAS/KRAS (ratio of KD value with respect to NRAS to KD value with respect to KRAS) [1] | HRAS/KRAS (ratio of KD value with respect to HRAS to KD value with respect to KRAS) [2]
CCOC[C@H]1C(=O)N[C@@H]([C@@H](C)CC)C(=O)N(C)CC(=O)N(C)[C@H]2C/C=C\CCN(C2=O)[C@@H](Cc2ccc(C(F)(F)F)cc2)C(=O)N(C)CC(=O)N[C@@H](CCc2ccc(C(F)(F)F)c(OC)c2)C(=O)N2C[C@@H](C)C[C@H]2C(=O)NC2(CCC2)C(=O)N(C)[C@@H](C2CCCC2)C(=O)N(C)[C@H](C(=O)N(C)CC)CC(=O)N1C [PP2026] | A (a compound having 10 or more and less than 20 is denoted as A) | A (a compound having 10 or more and less than 20 is denoted as A) |  | 
CCCOC[C@H]1C(=O)N[C@@H]([C@@H](C)CC)C(=O)N(C)CC(=O)N(C)[C@H]2C/C=C\CCN(C2=O)[C@@H](Cc2ccc(C(F)(F)F)cc2)C(=O)N(C)CC(=O)N[C@@H](CCc2ccc(C(F)(F)F)c(OC)c2)C(=O)N2C[C@@H](C)C[C@H]2C(=O)NC2(CCC2)C(=O)N(C)[C@@H](C2CCCC2)C(=O)N(C)[C@H](C(=O)N(C)CC)CC(=O)N1C [PP2027] | A (a compound having 10 or more and less than 20 is denoted as A) | B (a compound having 3 or more and less than 10 is denoted as B) |  | 
CCCOC[C@H]1C(=O)N[C@@H]([C@@H](C)CC)C(=O)N(C)CC(=O)N(C)[C@H]2C/C=C\CCN(C2=O)[C@@H](Cc2ccc(C(F)(F)F)cc2)C(=O)N(C)CC(=O)N[C@@H](CCc2ccc(C(F)(F)F)c(OC)c2)C(=O)N2C[C@@H](C)C[C@H]2C(=O)NC2(CCC2)C(=O)N(C)[C@@H](C2CCCC2)C(=O)N(C)[C@H](C(=O)N(C)CCC)CC(=O)N1C [PP2028] | A (a compound having 10 or more and less than 20 is denoted as A) | B (a compound having 3 or more and less than 10 is denoted as B) |  | 
CCCN(C)C(=O)[C@@H]1CC(=O)N(C)[C@@H](CCOC)C(=O)N[C@@H]([C@@H](C)CC)C(=O)N(C)CC(=O)N(C)[C@H]2C/C=C\CCN(C2=O)[C@@H](Cc2ccc(C(F)(F)F)cc2)C(=O)N(C)CC(=O)N[C@@H](CCc2ccc(C(F)(F)F)c(OC)c2)C(=O)N2C[C@@H](C)C[C@H]2C(=O)NC2(CCC2)C(=O)N(C)[C@@H](C2CCCC2)C(=O)N1C [PP2029] | A (a compound having 10 or more and less than 20 is denoted as A) | B (a compound having 3 or more and less than 10 is denoted as B) |  | 
CCCN(C)C(=O)[C@@H]1CC(=O)N(C)[C@@H](CC(F)F)C(=O)N[C@@H]([C@@H](C)CC)C(=O)N(C)CC(=O)N(C)[C@H]2C/C=C\CCN(C2=O)[C@@H](Cc2ccc(C(F)(F)F)cc2)C(=O)N(C)CC(=O)N[C@@H](CCc2cc(F)c(C(F)(F)F)c(F)c2)C(=O)N2C[C@H](OCC)C[C@H]2C(=O)NC2(CC(C)(C)C2)C(=O)N(C)[C@@H](C2CCCC2)C(=O)N1C [PP2030] | A (a compound having 10 or more and less than 20 is denoted as A) | A (a compound having 10 or more and less than 20 is denoted as A) |  | 
CCCN(C)C(=O)[C@@H]1CC(=O)N(C)[C@@H](COCC)C(=O)N[C@@H]([C@@H](C)CC)C(=O)N(C)CC(=O)N(C)[C@H]2C/C=C\CCN(C2=O)[C@@H](Cc2ccc(C(F)(F)F)cc2)C(=O)N(C)CC(=O)N[C@@H](CCc2cc(F)c(C(F)(F)F)c(F)c2)C(=O)N2C[C@H](OCC)C[C@H]2C(=O)NC2(CC(C)(C)C2)C(=O)N(C)[C@@H](C2CCCC2)C(=O)N1C [PP2031] | B (a compound having 3 or more and less than 10 is denoted as B) | B (a compound having 3 or more and less than 10 is denoted as B) |  | 
CCOC[C@H]1C(=O)N[C@@H]([C@@H](C)CC)C(=O)N(C)CC(=O)N(C)[C@H]2C/C=C\CCN(C2=O)[C@@H](Cc2ccc(C(F)(F)F)cc2)C(=O)N(C)CC(=O)N[C@@H](CCc2cc(F)c(C(F)(F)F)c(F)c2)C(=O)N2C[C@H](OCC)C[C@H]2C(=O)NC2(CC(C)(C)C2)C(=O)N(C)[C@@H](C2CCCC2)C(=O)N(C)[C@H](C(=O)N(C)CC)CC(=O)N1C [PP2032] | A (a compound having 10 or more and less than 20 is denoted as A) | B (a compound having 3 or more and less than 10 is denoted as B) |  | 
CCO[C@@H]1C[C@H]2C(=O)NC3(CC(C)(C)C3)C(=O)N(C)[C@@H](C3CCCC3)C(=O)N(C)[C@H](C(=O)N(C)CC)CC(=O)N(C)[C@@H](C(C)C)C(=O)N[C@@H]([C@@H](C)CC)C(=O)N(C)CC(=O)N(C)[C@H]3C/C=C\CCN(C3=O)[C@@H](Cc3ccc(C(F)(F)F)cc3)C(=O)N(C)CC(=O)N[C@@H](CCc3cc(F)c(C(F)(F)F)c(F)c3)C(=O)N2C1 [PP2034] |  |  | A (a compound having 10 or more and less than 20 is denoted as A) | A (a compound having 10 or more and less than 20 is denoted as A)
CCO[C@@H]1C[C@H]2C(=O)NC3(CC(C)(C)C3)C(=O)N(C)[C@@H](C3CCCC3)C(=O)N(C)[C@H](C(=O)N(C)CC)CC(=O)N(C)[C@@H](C3CC3)C(=O)N[C@@H]([C@@H](C)CC)C(=O)N(C)CC(=O)N(C)[C@H]3C/C=C\CCN(C3=O)[C@@H](Cc3ccc(C(F)(F)F)cc3)C(=O)N(C)CC(=O)N[C@@H](CCc3cc(F)c(C(F)(F)F)c(F)c3)C(=O)N2C1 [PP2036] |  |  | A (a compound having 10 or more and less than 20 is denoted as A) | A (a compound having 10 or more and less than 20 is denoted as A)
CCCN(C)C(=O)[C@@H]1CC(=O)N(C)[C@@H](C2CC2)C(=O)N[C@@H]([C@@H](C)CC)C(=O)N(C)CC(=O)N(C)[C@H]2C/C=C\CCN(C2=O)[C@@H](Cc2ccc(C(F)(F)F)cc2)C(=O)N(C)CC(=O)N[C@@H](CCc2cc(F)c(C(F)(F)F)c(F)c2)C(=O)N2C[C@H](OCC)C[C@H]2C(=O)NC2(CC(C)(C)C2)C(=O)N(C)[C@@H](C2CCCC2)C(=O)N1C [PP2037] |  |  | A (a compound having 10 or more and less than 20 is denoted as A) | A (a compound having 10 or more and less than 20 is denoted as A)
CCO[C@@H]1C[C@H]2C(=O)NC3(CC(C)(C)C3)C(=O)N(C)[C@@H](C3CCCC3)C(=O)N(C)[C@H](C(=O)N(C)CC)CC(=O)N(C)[C@@H](C3CCC3)C(=O)N[C@@H]([C@@H](C)CC)C(=O)N(C)CC(=O)N(C)[C@H]3C/C=C\CCN(C3=O)[C@@H](Cc3ccc(C(F)(F)F)cc3)C(=O)N(C)CC(=O)N[C@@H](CCc3cc(F)c(C(F)(F)F)c(F)c3)C(=O)N2C1 [PP2038] |  |  | A (a compound having 10 or more and less than 20 is denoted as A) | A (a compound having 10 or more and less than 20 is denoted as A)
CCCN(C)C(=O)[C@@H]1CC(=O)N(C)[C@@H](CC(F)F)C(=O)N[C@@H]([C@@H](C)CC)C(=O)N(C)CC(=O)N(C)[C@H]2C/C=C\CCN(C2=O)[C@@H](Cc2ccc(C(F)(F)F)cc2)C(=O)N(C)CC(=O)N[C@@H](CCc2cc(F)c(C(F)(F)F)c(F)c2)C(=O)N2C[C@@H](C)C[C@H]2C(=O)NC2(CC(C)(C)C2)C(=O)N(C)[C@@H](C2CCCC2)C(=O)N1C [PP2040] |  |  | A (a compound having 10 or more and less than 20 is denoted as A) | A (a compound having 10 or more and less than 20 is denoted as A)
CCCN(C)C(=O)[C@@H]1CC(=O)N(C)[C@@H](COCC)C(=O)N[C@@H]([C@@H](C)CC)C(=O)N(C)CC(=O)N(C)[C@H]2C/C=C\CCN(C2=O)[C@@H](Cc2ccc(C(F)(F)F)cc2)C(=O)N(C)CC(=O)N[C@@H](CCc2cc(F)c(C(F)(F)F)c(F)c2)C(=O)N2C[C@@H](C)C[C@H]2C(=O)NC2(CC(C)(C)C2)C(=O)N(C)[C@@H](C2CCCC2)C(=O)N1C [PP2041] |  |  | A (a compound having 10 or more and less than 20 is denoted as A) | A (a compound having 10 or more and less than 20 is denoted as A)
CCOC[C@H]1C(=O)N[C@@H]([C@@H](C)CC)C(=O)N(C)CC(=O)N(C)[C@H]2C/C=C\CCN(C2=O)[C@@H](Cc2ccc(C(F)(F)F)cc2)C(=O)N(C)CC(=O)N[C@@H](CCc2cc(F)c(C(F)(F)F)c(F)c2)C(=O)N2C[C@@H](C)C[C@H]2C(=O)NC2(CC(C)(C)C2)C(=O)N(C)[C@@H](C2CCCC2)C(=O)N(C)[C@H](C(=O)N(C)CC)CC(=O)N1C [PP2042] |  |  | A (a compound having 10 or more and less than 20 is denoted as A) | A (a compound having 10 or more and less than 20 is denoted as A)
CCCOC[C@H]1C(=O)N[C@@H]([C@@H](C)CC)C(=O)N(C)CC(=O)N(C)[C@H]2C/C=C\CCN(C2=O)[C@@H](Cc2ccc(C(F)(F)F)cc2)C(=O)N(C)CC(=O)N[C@@H](CCc2cc(F)c(C(F)(F)F)c(F)c2)C(=O)N2C[C@@H](C)C[C@H]2C(=O)NC2(CC(C)(C)C2)C(=O)N(C)[C@@H](C2CCCC2)C(=O)N(C)[C@H](C(=O)N(C)CC)CC(=O)N1C [PP2043] |  |  | A (a compound having 10 or more and less than 20 is denoted as A) | A (a compound having 10 or more and less than 20 is denoted as A)
CCO[C@@H]1C[C@H]2C(=O)NC3(CC(C)(C)C3)C(=O)N(C)[C@@H](C3CCCC3)C(=O)N(C)[C@H](C(=O)N(C)CC)CC(=O)N(C)[C@@H](CC(C)C)C(=O)N[C@@H]([C@@H](C)CC)C(=O)N(C)CC(=O)N(C)[C@H]3C/C=C\CCN(C3=O)[C@@H](Cc3ccc(C(F)F)cc3)C(=O)N(C)CC(=O)N[C@@H](CCc3cc(F)c(C(F)(F)F)c(F)c3)C(=O)N2C1 [PP2046] |  |  | A (a compound having 10 or more and less than 20 is denoted as A) | A (a compound having 10 or more and less than 20 is denoted as A)
